The text below walks through data of US11014911B2, “CDK2 inhibitors” (Pfizer Inc., priority 2019, dated 2021).

The assay addresses CDK2/Cyclin E1 full length (Homo sapiens (Human), UniProt P24941). Description: CDK2/Cyclin E1 full length mobility shift assay. The format is biochemical.
Take `COc1cc(CC(=O)Nc2cc([C@H]3CC[C@@H](OC(=O)NCC(F)F)C3)[nH]n2)ccn1` [Example 251, (1R,3S)-3-(3-{[(2-methoxypyridin-4-yl)acetyl]amino}-1H-pyrazol-5-yl)cyclopentyl (2,2-difluoroethyl)carbamate]: the Ki came out at 1.83 nM.
For `Cc1ncc(CC(=O)Nc2cc([C@H]3CC[C@@H](OC(=O)NCC(F)(F)F)C3)[nH]n2)s1` [Example 254, (1R,3S)-3-(3-{[(2-methyl-1,3-thiazol-5-yl)acetyl]amino}-1H-pyrazol-5-yl)cyclopentyl (2,2,2-trifluoroethyl)carbamate], the Ki was 2.17 nM.
Turning to `COc1cc(CC(=O)Nc2cc([C@H]3CC[C@@H](OC(=O)NCC(F)(F)F)C3)[nH]n2)ccn1` [Example 255, (1R,3S)-3-(3-{[(2-methoxypyridin-4-yl)acetyl]amino}-1H-pyrazol-5-yl)cyclopentyl (2,2,2-trifluoroethyl)carbamate], the Ki turned out to be 1.69 nM.
Then `CNC(=O)O[C@@H]1CC[C@H](c2cc(NC(=O)Cc3ccc(OC)nc3)n[nH]2)C1` [Example 256, (1R,3S)-3-(3-{[(6-methoxypyridin-3-yl)acetyl]amino}-1H-pyrazol-5-yl)cyclopentyl methylcarbamate], with 2.58 nM.
With `COc1cc(CC(=O)Nc2cc([C@@H]3CC[C@H](OC(N)=O)C3)[nH]n2)ccn1` [Example 257, (1S,3R)-3-(3-{[(2-methoxypyridin-4-yl)acetyl]amino}-1H-pyrazol-5-yl)cyclopentyl carbamate], the Ki came to 4.2 nM.
As to `CC(C)NC(=O)O[C@@H]1CC[C@H](c2cc(NC(=O)c3cncn3C)n[nH]2)C1` [Example 260, (1R,3S)-3-(3-{[(1-methyl-1H-imidazol-5-yl)carbonyl]amino}-1H-pyrazol-5-yl)cyclopentyl propan-2-ylcarbamate], the Ki is 2.89 nM.
Take `CC(C)NC(=O)O[C@H]1CC[C@@H](c2cc(NC(=O)Cc3ccccn3)n[nH]2)C1` [Example 264, (1S,3R)-3-{3-[(pyridin-2-ylacetyl)amino]-1H-pyrazol-5-yl}cyclopentyl propan-2-ylcarbamate]: the Ki was determined as 1.83 nM.
Take `CC(C)NC(=O)O[C@@H]1CC[C@H](c2cc(NC(=O)Cc3ccccn3)n[nH]2)C1` [Example 265, (1R,3S)-3-{3-[(pyridin-2-ylacetyl)amino]-1H-pyrazol-5-yl}cyclopentyl propan-2-ylcarbamate]: the Ki was found to be 1.91 nM.
Under `CC(C)NC(=O)O[C@@H]1CC[C@H](c2cc(NC(=O)Cc3ccn(C)n3)n[nH]2)C1` [Example 267, (1R,3S)-3-(3-{[(1-methyl-1H-pyrazol-3-yl)acetyl]amino}-1H-pyrazol-5-yl)cyclopentyl propan-2-ylcarbamate] stands 3.02 nM; under `Cc1cc(CC(=O)Nc2cc([C@@H]3CC[C@H](OC(=O)NC(C)C)C3)[nH]n2)no1` [Example 268, (1S,3R)-3-(3-{[(5-methyl-1,2-oxazol-3-yl)acetyl]amino}-1H-pyrazol-5-yl)cyclopentyl propan-2-ylcarbamate], 0.97 nM; under `Cc1cc(CC(=O)Nc2cc([C@H]3CC[C@@H](OC(=O)NC(C)C)C3)[nH]n2)no1` [Example 269, (1R,3S)-3-(3-{[(5-methyl-1,2-oxazol-3-yl)acetyl]amino}-1H-pyrazol-5-yl)cyclopentyl propan-2-ylcarbamate], 1.68 nM.
Under `Cc1cnc(CC(=O)Nc2cc([C@H]3CC[C@@H](OC(=O)NC(C)C)C3)[nH]n2)o1` [Example 271, (1R,3S)-3-(3-{[(5-methyl-1,3-oxazol-2-yl)acetyl]amino}-1H-pyrazol-5-yl)cyclopentyl propan-2-ylcarbamate] stands 1.57 nM; under `Cc1cnc(CC(=O)Nc2cc([C@H]3CC[C@@H](OC(=O)NC(C)C)C3)[nH]n2)s1` [Example 273, (1R,3S)-3-(3-{[(5-methyl-1,3-thiazol-2-yl)acetyl]amino}-1H-pyrazol-5-yl)cyclopentyl propan-2-ylcarbamate], 3.08 nM.
In the case of `Cc1csc(CC(=O)Nc2cc([C@H]3CC[C@@H](OC(=O)NC(C)C)C3)[nH]n2)n1` [Example 274, (1R,3S)-3-(3-{[(4-methyl-1,3-thiazol-2-yl)acetyl]amino}-1H-pyrazol-5-yl)cyclopentyl propan-2-ylcarbamate], the Ki was determined as 2.62 nM.
As to `COc1cnc(CC(=O)Nc2cc([C@H]3CC[C@@H](OC(=O)NC(C)C)C3)[nH]n2)cn1` [Example 277, (1R,3S)-3-(3-{[(5-methoxypyrazin-2-yl)acetyl]amino}-1H-pyrazol-5-yl)cyclopentyl propan-2-ylcarbamate], the Ki came to 0.98 nM.
As to `COc1cnc(CC(=O)Nc2cc([C@H]3CC[C@@H](OC(=O)NC(C)C)C3)[nH]n2)s1` [Example 280, (1R,3S)-3-(3-{[(5-methoxy-1,3-thiazol-2-yl)acetyl]amino}-1H-pyrazol-5-yl)cyclopentyl propan-2-ylcarbamate], the Ki came to 2.12 nM.
`Cc1nc(CC(=O)Nc2cc([C@H]3CC[C@@H](OC(=O)NC(C)C)C3)[nH]n2)ccc1Cl` [Example 282, (1R,3S)-3-(3-{[(5-chloro-6-methylpyridin-2-yl)acetyl]amino}-1H-pyrazol-5-yl)cyclopentyl propan-2-ylcarbamate]: the Ki turned out to be 2.34 nM.
Consider `CC(C)NC(=O)O[C@@H]1CC[C@H](c2cc(NC(=O)Cc3cccc4scnc34)n[nH]2)C1` [Example 283, (1R,3S)-3-{3-[(1,3-benzothiazol-4-ylacetyl)amino]-1H-pyrazol-5-yl}cyclopentyl propan-2-ylcarbamate], for which the Ki is 4.6 nM.
In the case of `CC(C)NC(=O)O[C@@H]1CC[C@H](c2cc(NC(=O)Cc3cccc4ncsc34)n[nH]2)C1` [Example 284, (1R,3S)-3-{3-[(1,3-benzothiazol-7-ylacetyl)amino]-1H-pyrazol-5-yl}cyclopentyl propan-2-ylcarbamate], the Ki came to 0.6 nM.
Regarding `COc1cc(CC(=O)Nc2cc([C@H]3CC[C@@H](OC(=O)NC(C)C)C3)[nH]n2)c(OC)cn1` [Example 285, (1R,3S)-3-(3-{[(2,5-dimethoxypyridin-4-yl)acetyl]amino}-1H-pyrazol-5-yl)cyclopentyl propan-2-ylcarbamate], the inhibitory constant (Ki) was determined as 3.97 nM.
Under `CC(C)NC(=O)O[C@@H]1CC[C@H](c2cc(NC(=O)Cc3ccc(C(F)(F)F)cn3)n[nH]2)C1` [Example 286, (1R,3S)-3-[3-({[5-(trifluoromethyl)pyridin-2-yl]acetyl}amino)-1H-pyrazol-5-yl]cyclopentyl propan-2-ylcarbamate] stands 4.14 nM; under `CC(C)NC(=O)O[C@@H]1CC[C@H](c2cc(NC(=O)Cc3cnc(C(F)(F)F)cn3)n[nH]2)C1` [Example 287, (1R,3S)-3-[3-({[5-(trifluoromethyl)pyrazin-2-yl]acetyl}amino)-1H-pyrazol-5-yl]cyclopentyl propan-2-ylcarbamate], 2.26 nM; under `COc1ccc(S(C)(=O)=O)c(CC(=O)Nc2cc([C@H]3CC[C@@H](OC(=O)NC(C)C)C3)[nH]n2)c1` [Example 288, (1R,3S)-3-[3-({[5-methoxy-2-(methylsulfonyl)phenyl]acetyl}amino)-1H-pyrazol-5-yl]cyclopentyl propan-2-ylcarbamate], 0.39 nM.
Take `Cc1cnc(CC(=O)Nc2cc([C@H]3CC[C@@H](OC(=O)N(C)C(C)C)C3)[nH]n2)o1` [Example 290, (1R,3S)-3-(3-{[(5-methyl-1,3-oxazol-2-yl)acetyl]amino}-1H-pyrazol-5-yl)cyclopentyl methyl(propan-2-yl)carbamate]: the Ki worked out at 1.45 nM.
With `Cc1coc(CC(=O)Nc2cc([C@H]3CC[C@@H](OC(=O)NC(C)(C)C)C3)[nH]n2)n1` [Example 296, (1R,3S)-3-(3-{[(4-methyl-1,3-oxazol-2-yl)acetyl]amino}-1H-pyrazol-5-yl)cyclopentyl tert-butylcarbamate], the Ki was 0.3 nM.
Take `Cc1cn(CC(=O)Nc2cc([C@H]3CC[C@@H](OC(=O)NC(C)(C)C)C3)[nH]n2)nn1` [Example 297, (1R,3S)-3-(3-{[(4-methyl-1H-1,2,3-triazol-1-yl)acetyl]amino}-1H-pyrazol-5-yl)cyclopentyl tert-butylcarbamate]: the inhibitory constant (Ki) came out at 1.17 nM.
With `CC(C)(C)NC(=O)O[C@@H]1CC[C@H](c2cc(NC(=O)Cc3ccc(F)cn3)n[nH]2)C1` [Example 300, (1R,3S)-3-(3-{[(5-fluoropyridin-2-yl)acetyl]amino}-1H-pyrazol-5-yl)cyclopentyl tert-butylcarbamate], the Ki turned out to be 0.65 nM.
With `CC(C)(C)NC(=O)O[C@@H]1CC[C@H](c2cc(NC(=O)Cc3ncccc3F)n[nH]2)C1` [Example 301, (1R,3S)-3-(3-{[(3-fluoropyridin-2-yl)acetyl]amino}-1H-pyrazol-5-yl)cyclopentyl tert-butylcarbamate], the Ki was 0.55 nM.
With `COc1cc(C(=O)Nc2cc([C@H]3CC[C@@H](OC(=O)NC(C)(C)C)C3)[nH]n2)n(C)n1` [Example 302, (1R,3S)-3-(3-{[(3-methoxy-1-methyl-1H-pyrazol-5-yl)carbonyl]amino}-1H-pyrazol-5-yl)cyclopentyl tert-butylcarbamate], the Ki is 0.5 nM.
As for `Cc1cnc(CC(=O)Nc2cc([C@H]3CC[C@@H](OC(=O)NC(C)(C)C)C3)[nH]n2)s1` [Example 303, (1R,3S)-3-(3-{[(5-methyl-1,3-thiazol-2-yl)acetyl]amino}-1H-pyrazol-5-yl)cyclopentyl tert-butylcarbamate], the Ki was determined as 0.33 nM.
Take `Cc1nc(CC(=O)Nc2cc([C@H]3CC[C@@H](OC(=O)NC(C)(C)C)C3)[nH]n2)cs1` [Example 304, (1R,3S)-3-(3-{[(2-methyl-1,3-thiazol-4-yl)acetyl]amino}-1H-pyrazol-5-yl)cyclopentyl tert-butylcarbamate]: the Ki was found to be 1.41 nM.
`Cc1nnc(CC(=O)Nc2cc([C@H]3CC[C@@H](OC(=O)NC(C)(C)C)C3)[nH]n2)s1` [Example 305, (1R,3S)-3-(3-{[(5-methyl-1,3,4-thiadiazol-2-yl)acetyl]amino}-1H-pyrazol-5-yl)cyclopentyl tert-butylcarbamate]: the Ki turned out to be 0.52 nM.
In the case of `CC(C)(C)NC(=O)O[C@@H]1CC[C@H](c2cc(NC(=O)Cc3coc(C4CC4)n3)n[nH]2)C1` [Example 306, (1R,3S)-3-(3-{[(2-cyclopropyl-1,3-oxazol-4-yl)acetyl]amino}-1H-pyrazol-5-yl)cyclopentyl tert-butylcarbamate], the inhibition constant Ki was 1.09 nM.
